This note sets out measurements from ChEMBL document CHEMBL5291721, “A preclinical secondary pharmacology resource illuminates target-adverse drug reaction associations of marketed drugs” (Nat Commun, 2023).

Some results are limits rather than exact numbers.

One experiment has as its target T1, Glucocorticoid receptor (Homo sapiens, UniProt P04150).
T1 sequence (P04150 whole entry): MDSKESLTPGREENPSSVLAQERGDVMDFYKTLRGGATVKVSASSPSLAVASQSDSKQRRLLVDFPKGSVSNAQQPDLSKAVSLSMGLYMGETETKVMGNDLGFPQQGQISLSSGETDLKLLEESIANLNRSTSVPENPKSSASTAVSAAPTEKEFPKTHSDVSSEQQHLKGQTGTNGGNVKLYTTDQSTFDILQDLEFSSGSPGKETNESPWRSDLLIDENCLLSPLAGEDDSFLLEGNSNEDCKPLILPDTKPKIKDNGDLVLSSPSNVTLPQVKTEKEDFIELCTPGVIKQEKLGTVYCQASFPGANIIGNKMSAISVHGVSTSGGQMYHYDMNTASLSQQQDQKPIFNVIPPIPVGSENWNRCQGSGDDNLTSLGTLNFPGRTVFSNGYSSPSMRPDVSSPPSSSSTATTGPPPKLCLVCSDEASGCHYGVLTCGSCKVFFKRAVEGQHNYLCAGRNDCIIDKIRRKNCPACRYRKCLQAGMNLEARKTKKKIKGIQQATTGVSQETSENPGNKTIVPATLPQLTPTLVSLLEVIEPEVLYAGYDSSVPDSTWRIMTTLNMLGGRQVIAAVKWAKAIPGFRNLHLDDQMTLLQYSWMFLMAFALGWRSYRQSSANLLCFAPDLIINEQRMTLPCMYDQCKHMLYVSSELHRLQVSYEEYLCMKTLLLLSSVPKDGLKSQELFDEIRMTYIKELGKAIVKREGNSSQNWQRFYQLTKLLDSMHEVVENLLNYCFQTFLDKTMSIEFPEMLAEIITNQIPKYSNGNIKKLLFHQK
Type of experiment: functional.

In experiment [1] the target is Gamma-aminobutyric acid receptor subunit alpha-1/alpha-2/beta-2/gamma-2 (Homo sapiens, UniProt P14867+P18507+P47869+P47870). Type of experiment: functional, cell-based.
Another experiment concerns the target Histamine H2 receptor (Homo sapiens, UniProt P25021).
The target of experiment [2] is 5-hydroxytryptamine receptor 2B (Homo sapiens, UniProt P41595).
For experiment [3], the target named is 5-hydroxytryptamine receptor 7 (Homo sapiens, UniProt P34969).
Experiment [4] has as its target Neurotensin receptor type 1 (Homo sapiens, UniProt P30989).
The target of the next experiment is T2, Progesterone receptor (Homo sapiens, UniProt P06401).
T2 sequence (P06401 whole entry): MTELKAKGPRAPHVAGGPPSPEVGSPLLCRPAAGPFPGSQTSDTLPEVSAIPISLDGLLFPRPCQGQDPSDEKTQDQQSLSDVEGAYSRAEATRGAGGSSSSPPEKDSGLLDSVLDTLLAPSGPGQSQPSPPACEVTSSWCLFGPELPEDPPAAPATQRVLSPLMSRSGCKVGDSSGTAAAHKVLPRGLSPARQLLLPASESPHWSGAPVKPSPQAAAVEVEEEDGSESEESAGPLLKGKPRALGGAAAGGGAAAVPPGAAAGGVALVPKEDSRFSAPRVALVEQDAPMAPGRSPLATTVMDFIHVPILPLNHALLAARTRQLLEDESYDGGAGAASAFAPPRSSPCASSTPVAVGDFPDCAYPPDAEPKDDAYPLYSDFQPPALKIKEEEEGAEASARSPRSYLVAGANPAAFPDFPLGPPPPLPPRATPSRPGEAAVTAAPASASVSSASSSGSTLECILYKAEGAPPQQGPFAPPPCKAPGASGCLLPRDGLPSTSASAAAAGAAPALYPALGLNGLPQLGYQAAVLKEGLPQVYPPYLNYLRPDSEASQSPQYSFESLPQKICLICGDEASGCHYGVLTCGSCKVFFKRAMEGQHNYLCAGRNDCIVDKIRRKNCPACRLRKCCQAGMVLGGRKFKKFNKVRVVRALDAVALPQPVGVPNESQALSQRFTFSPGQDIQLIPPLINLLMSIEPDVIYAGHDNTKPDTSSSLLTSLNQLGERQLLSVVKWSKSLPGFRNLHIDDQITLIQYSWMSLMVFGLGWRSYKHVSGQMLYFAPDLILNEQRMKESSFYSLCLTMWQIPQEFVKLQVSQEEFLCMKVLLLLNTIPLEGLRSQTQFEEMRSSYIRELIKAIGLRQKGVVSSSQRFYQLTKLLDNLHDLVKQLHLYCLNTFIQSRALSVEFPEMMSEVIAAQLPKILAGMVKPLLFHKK

The target in experiment [5] is T3, Alpha-2A adrenergic receptor (Homo sapiens, UniProt P08913).
T3 sequence (P08913 whole entry): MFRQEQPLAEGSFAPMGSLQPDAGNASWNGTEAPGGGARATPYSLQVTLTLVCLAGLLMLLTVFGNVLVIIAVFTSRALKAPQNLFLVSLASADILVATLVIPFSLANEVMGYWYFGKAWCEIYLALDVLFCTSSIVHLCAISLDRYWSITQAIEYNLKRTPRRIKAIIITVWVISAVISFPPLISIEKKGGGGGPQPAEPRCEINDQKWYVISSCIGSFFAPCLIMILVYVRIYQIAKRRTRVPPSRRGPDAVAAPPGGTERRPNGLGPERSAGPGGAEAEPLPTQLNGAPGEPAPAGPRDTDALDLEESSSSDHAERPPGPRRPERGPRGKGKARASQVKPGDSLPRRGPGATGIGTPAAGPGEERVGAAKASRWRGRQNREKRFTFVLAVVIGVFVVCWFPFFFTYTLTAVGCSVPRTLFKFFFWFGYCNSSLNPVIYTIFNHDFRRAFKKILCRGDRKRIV

For experiment [6], the target named is T4, Muscarinic acetylcholine receptor M1 (Homo sapiens, UniProt P11229).
T4 sequence (P11229 whole entry): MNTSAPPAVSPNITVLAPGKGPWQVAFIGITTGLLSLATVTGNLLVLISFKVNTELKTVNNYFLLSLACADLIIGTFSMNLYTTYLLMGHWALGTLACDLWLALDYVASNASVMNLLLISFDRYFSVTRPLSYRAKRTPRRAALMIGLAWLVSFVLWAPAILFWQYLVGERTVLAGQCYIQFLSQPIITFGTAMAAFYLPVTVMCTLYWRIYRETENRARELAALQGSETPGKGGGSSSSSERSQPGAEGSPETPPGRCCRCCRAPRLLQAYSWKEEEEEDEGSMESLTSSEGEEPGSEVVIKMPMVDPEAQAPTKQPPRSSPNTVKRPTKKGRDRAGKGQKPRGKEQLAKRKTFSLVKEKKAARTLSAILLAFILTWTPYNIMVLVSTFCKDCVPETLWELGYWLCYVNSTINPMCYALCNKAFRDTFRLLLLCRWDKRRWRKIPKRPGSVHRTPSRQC
In kind it is functional, cell-based.
Further: assay procedure not described here.

Sequence of Gamma-aminobutyric acid receptor subunit alpha-1/alpha-2/beta-2/gamma-2 (P14867 whole entry): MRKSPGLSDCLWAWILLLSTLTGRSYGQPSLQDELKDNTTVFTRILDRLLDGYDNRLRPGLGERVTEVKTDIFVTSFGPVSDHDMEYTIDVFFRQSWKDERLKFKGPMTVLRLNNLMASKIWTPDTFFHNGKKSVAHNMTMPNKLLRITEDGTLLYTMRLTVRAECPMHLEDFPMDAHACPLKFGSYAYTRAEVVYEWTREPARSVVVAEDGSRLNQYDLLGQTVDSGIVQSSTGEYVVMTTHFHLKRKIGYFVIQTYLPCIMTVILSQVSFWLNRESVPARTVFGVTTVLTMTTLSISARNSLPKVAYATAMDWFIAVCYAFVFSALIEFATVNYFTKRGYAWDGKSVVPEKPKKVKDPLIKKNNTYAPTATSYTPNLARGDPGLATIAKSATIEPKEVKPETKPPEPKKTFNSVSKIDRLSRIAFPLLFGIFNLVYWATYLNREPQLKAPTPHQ
Sequence of Gamma-aminobutyric acid receptor subunit alpha-1/alpha-2/beta-2/gamma-2 (P47870 whole entry): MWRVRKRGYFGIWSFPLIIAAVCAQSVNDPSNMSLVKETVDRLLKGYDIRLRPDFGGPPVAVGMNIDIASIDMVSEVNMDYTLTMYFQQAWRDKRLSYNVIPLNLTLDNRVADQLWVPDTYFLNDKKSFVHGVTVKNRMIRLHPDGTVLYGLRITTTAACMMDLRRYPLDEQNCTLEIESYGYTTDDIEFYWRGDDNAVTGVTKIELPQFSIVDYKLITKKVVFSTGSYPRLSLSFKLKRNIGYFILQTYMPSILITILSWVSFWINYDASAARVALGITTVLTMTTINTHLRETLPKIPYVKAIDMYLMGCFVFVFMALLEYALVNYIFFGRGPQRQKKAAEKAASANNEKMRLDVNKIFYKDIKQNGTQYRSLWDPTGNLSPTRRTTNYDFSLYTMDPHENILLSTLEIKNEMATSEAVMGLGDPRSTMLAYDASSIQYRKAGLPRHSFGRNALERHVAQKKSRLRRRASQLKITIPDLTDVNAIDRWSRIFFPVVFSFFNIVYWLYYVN
Sequence of Gamma-aminobutyric acid receptor subunit alpha-1/alpha-2/beta-2/gamma-2 (P18507 whole entry): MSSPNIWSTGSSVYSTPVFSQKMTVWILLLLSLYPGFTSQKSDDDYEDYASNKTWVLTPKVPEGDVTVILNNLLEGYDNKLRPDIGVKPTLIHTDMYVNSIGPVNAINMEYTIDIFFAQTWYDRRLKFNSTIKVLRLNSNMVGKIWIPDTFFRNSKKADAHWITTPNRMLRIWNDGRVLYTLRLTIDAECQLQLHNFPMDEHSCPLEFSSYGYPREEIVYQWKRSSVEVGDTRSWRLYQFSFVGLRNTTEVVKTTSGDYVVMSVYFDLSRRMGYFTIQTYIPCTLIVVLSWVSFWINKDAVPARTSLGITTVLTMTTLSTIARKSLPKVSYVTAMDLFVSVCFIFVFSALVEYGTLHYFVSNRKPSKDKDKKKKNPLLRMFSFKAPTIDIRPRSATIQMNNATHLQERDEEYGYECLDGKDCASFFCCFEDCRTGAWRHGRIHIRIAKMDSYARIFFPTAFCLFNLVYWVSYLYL
Sequence of Gamma-aminobutyric acid receptor subunit alpha-1/alpha-2/beta-2/gamma-2 (P47869 whole entry): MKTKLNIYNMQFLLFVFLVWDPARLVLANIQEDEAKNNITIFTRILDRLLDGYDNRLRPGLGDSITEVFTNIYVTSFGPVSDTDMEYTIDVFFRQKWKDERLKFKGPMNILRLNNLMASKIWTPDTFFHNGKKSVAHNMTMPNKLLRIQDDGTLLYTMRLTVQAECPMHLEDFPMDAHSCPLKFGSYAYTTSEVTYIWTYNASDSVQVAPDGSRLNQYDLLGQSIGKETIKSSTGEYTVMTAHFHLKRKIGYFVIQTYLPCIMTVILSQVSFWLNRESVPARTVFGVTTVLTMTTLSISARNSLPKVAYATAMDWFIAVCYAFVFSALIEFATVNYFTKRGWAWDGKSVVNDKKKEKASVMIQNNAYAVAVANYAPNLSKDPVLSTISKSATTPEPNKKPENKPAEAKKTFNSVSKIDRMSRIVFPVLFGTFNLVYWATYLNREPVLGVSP
Sequence of Neurotensin receptor type 1 (P30989 whole entry): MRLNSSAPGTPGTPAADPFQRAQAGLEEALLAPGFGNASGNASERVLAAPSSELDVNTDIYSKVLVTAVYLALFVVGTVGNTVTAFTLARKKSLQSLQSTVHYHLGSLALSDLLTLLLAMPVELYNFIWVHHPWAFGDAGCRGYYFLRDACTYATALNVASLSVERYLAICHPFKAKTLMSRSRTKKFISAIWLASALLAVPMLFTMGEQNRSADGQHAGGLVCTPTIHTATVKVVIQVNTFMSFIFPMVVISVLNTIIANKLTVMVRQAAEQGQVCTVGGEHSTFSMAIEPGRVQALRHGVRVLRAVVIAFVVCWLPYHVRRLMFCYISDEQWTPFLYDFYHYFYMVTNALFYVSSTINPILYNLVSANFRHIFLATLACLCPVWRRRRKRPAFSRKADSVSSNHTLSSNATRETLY
Sequence of Histamine H2 receptor (P25021 whole entry): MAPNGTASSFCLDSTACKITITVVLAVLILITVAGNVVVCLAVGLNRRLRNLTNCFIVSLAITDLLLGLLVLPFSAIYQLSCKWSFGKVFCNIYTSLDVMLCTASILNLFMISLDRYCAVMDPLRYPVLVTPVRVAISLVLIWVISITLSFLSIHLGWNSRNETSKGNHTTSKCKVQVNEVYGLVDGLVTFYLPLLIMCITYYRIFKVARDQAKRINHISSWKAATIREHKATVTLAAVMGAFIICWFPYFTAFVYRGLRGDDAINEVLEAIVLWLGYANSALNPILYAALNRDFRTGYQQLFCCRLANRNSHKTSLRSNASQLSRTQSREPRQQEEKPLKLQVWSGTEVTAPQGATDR
Sequence of 5-hydroxytryptamine receptor 2B (P41595 whole entry): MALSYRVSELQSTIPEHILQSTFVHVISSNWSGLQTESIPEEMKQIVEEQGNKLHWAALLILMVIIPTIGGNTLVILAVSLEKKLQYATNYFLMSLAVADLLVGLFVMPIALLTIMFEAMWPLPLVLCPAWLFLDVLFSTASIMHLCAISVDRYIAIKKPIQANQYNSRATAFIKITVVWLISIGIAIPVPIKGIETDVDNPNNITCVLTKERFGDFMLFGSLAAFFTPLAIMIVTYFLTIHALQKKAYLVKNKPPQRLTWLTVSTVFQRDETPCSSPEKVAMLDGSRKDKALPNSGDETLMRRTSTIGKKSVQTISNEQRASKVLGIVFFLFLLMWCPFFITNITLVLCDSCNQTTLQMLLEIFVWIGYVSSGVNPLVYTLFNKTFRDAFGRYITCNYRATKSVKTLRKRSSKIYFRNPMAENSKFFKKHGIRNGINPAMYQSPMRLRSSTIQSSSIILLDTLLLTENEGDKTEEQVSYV
Sequence of 5-hydroxytryptamine receptor 7 (P34969 whole entry): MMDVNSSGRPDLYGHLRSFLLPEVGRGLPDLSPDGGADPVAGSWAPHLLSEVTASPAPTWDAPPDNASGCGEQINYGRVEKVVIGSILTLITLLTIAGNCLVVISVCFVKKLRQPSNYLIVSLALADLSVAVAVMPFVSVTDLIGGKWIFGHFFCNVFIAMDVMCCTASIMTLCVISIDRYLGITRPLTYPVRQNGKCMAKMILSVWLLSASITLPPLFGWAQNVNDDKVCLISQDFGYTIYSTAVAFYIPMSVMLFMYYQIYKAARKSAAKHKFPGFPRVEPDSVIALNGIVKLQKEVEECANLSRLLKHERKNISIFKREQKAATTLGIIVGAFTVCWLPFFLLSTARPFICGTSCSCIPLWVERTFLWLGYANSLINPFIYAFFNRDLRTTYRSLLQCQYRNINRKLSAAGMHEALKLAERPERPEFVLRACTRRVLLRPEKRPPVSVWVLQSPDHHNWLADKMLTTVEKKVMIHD

Broadly, the AC50 is the concentration at which the activity in the assay is half-maximal. Low values mean activity at low concentration, high ones activity only at high concentration. On Glucocorticoid receptor, `COc1ccc2c(c1)C(=O)N(CCc1ccc(S(=O)(=O)NC(=O)NC3CCCCC3)cc1)C(=O)C2(C)C` [GLIQUIDONE] yielded an AC50 greater than 30 µM.

Turning to `CO/N=C(\C(=O)N[C@@H]1C(=O)N2C(C(=O)[O-])=C(C[N+]3(C)CCCC3)CS[C@H]12)c1csc(N)n1`, the AC50 is greater than 2400 µM in experiment [1] and greater than 300 µM at Glucocorticoid receptor.

Take `C#C[C@]1(O)CC[C@H]2[C@@H]3CCc4cc(O)ccc4[C@H]3CC[C@@]21C` [ETHINYL ESTRADIOL]: the AC50 was greater than 10 µM at Histamine H2 receptor; greater than 30 µM in [2]; greater than 30 µM in experiment [3]; greater than 30 µM at Glucocorticoid receptor; greater than 30 µM in experiment [4]; greater than 30 µM at Progesterone receptor. This compound yielded an AC50 in experiment [5] greater than 10 µM.

On to `OCc1cc([C@@H](O)CNCCCCCCOCCOCc2c(Cl)cccc2Cl)ccc1O` [VILANTEROL], for which the AC50 (in experiment [1]; at Glucocorticoid receptor) was greater than 30 µM in each case.

On to `CC(N)Cc1ccccc1` (stereo not drawn) [AMPHETAMINE], for which the AC50 (in experiment [1]; on Glucocorticoid receptor; in [4]; at Progesterone receptor) was greater than 30 µM throughout.

Take `CC(C)Cc1ccc(CC(=O)O)cc1` [IBUFENAC]: the AC50 (in [1]; on Glucocorticoid receptor) was greater than 30 µM in each case.

With `O=C(NC[C@H]1CN(c2ccc(N3CCOCC3=O)cc2)C(=O)O1)c1ccc(Cl)s1` [RIVAROXABAN], the AC50 in experiment [6] was greater than 3 µM; in [1] it was greater than 30 µM; at Glucocorticoid receptor it was greater than 30 µM.

`Cc1ccc(C(=O)c2cc(O)c(O)c([N+](=O)[O-])c2)cc1` [TOLCAPONE] yielded an AC50 at Glucocorticoid receptor of 14 µM.

In the case of `CC(=O)c1ccc2c(c1)N(CCCN1CCN(CCO)CC1)c1ccccc1S2` [ACETOPHENAZINE], the AC50 (in [1]; on Glucocorticoid receptor) was greater than 30 µM each time.

In turn, `CC(C)NNC(=O)c1ccncc1` [IPRONIAZID] came in with an AC50 at Glucocorticoid receptor greater than 30 µM.

Take `CN1CCCC(n2nc(Cc3ccc(Cl)cc3)c3ccccc3c2=O)CC1` (stereo not drawn) [AZELASTINE]: the AC50 was 19 µM in [1] and greater than 30 µM at Glucocorticoid receptor.

On to `CC[C@H](C)C(=O)O[C@H]1C[C@H](O)C=C2C=C[C@H](C)[C@H](CC[C@@H](O)C[C@@H](O)CC(=O)O)[C@H]21` [PRAVASTATIN], for which the AC50 on Glucocorticoid receptor is greater than 30 µM.
